Test results: BindingDB's records for doi:10.1021/acs.jmedchem.9b01183 (Univ. Lille, 2020)

Test: Inhibition of STAT5b in mouse BaF3/FLT3-ITD cells assessed as reduction in cell proliferation

Row | IC50 [µM] | SMILES
1 | 153 | O=C(O)c1nonc1NCn1cnnn1
2 | 76 | O=C(O)c1nonc1NCn1nnnc1Cc1ccccc1
3 | 25 | COC(=O)c1nonc1NCn1cnnn1
